Assay results as given in PMC3382171 (PLoS ONE, 2012).
Like-named read-outs stand apart in the source and are kept apart here.

Tests used:
Assay in all cases: biochemical
PLK1 [1] = target: T1, PLK1 (Homo sapiens, UniProt P53350); design: University of Dundee kinase panel, per cent inhibition of phosphorylation at ATP Km
Protocol: The METi and RAFi were screened against kinase panels (SelectScreen, Invitrogen; University of Dundee, Division of Signal Transduction Therapy, UK; Upstate Biotechnology/Millipore, Billerica, MA). In these selectivity assays the concentration of ATP was set to the Km value of ATP for each kinase tested to allow for a relative potency comparison between the various kinases. The compounds were tested at 1 µM final concentration. […] (A) Kinase selectivity screen (KSS) performed at Upstate Biotechnology. […] (B) KSS performed at University of Dundee (Division of Signal Transduction Therapy). […] (PDF) Click here for additional data file. Supplementary file pone.0039653.s002.pdf: Figure S2 Kinase Selectivity Screen of RAFi. (A) Kinase selectivity screen (KSS) performed at University of Dundee (Division of Signal Transduction Therapy). Values in % inhibition of phosphorylation given 1 µM of RAFi compared to control. (B) KSS performed at Invitrogen (Selectscreen Service) compared to control. Values in % inhibition of phosphorylation given 1 µM of RAFi. (C) Cell based dose response kinase inhibition of indicated kinases by RAFi. (PDF) Click here for additional data file.

CSF1R (FMS) = CSF1R (FMS) (Homo sapiens, UniProt P07333); design: Invitrogen SelectScreen kinase panel, percent inhibition at 1 uM, ATP at Km; details: read-out: Invitrogen KSS %Inh at 1 µM
Sequence of CSF1R (FMS) (P07333 whole entry): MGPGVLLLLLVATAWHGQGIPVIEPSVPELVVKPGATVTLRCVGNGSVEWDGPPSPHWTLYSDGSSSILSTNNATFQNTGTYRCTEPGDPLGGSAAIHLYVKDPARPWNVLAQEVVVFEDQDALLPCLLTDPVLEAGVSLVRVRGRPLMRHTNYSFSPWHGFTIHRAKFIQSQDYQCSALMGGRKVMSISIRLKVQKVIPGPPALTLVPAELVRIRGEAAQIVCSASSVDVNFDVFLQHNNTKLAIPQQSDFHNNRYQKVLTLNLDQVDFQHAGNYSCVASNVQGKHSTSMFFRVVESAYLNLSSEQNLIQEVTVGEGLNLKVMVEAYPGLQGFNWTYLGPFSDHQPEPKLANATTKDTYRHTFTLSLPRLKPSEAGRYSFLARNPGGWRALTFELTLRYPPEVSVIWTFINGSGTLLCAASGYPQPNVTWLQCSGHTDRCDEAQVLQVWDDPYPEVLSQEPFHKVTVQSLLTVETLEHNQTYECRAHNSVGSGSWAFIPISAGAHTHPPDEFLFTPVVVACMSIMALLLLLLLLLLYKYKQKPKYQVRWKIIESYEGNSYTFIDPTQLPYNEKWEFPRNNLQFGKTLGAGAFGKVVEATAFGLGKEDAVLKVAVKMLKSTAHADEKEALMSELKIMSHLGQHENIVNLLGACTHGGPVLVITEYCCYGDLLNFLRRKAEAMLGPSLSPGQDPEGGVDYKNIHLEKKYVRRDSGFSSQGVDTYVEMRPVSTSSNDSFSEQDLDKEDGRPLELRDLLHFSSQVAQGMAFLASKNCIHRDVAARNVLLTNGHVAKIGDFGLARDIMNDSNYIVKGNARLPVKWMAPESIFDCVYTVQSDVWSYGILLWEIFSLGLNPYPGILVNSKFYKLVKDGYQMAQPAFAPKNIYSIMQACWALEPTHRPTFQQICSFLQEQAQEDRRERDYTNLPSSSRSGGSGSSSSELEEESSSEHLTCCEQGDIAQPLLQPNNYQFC
Protocol: (§1) The METi and RAFi were screened against kinase panels (SelectScreen, Invitrogen; University of Dundee, Division of Signal Transduction Therapy, UK; Upstate Biotechnology/Millipore, Billerica, MA). In these selectivity assays the concentration of ATP was set to the Km value of ATP for each kinase tested to allow for a relative potency comparison between the various kinases. The compounds were tested at 1 µM final concentration. […] Supplementary file pone.0039653.s002.pdf: Figure S2 Kinase Selectivity Screen of RAFi. (A) Kinase selectivity screen (KSS) performed at University of Dundee (Division of Signal Transduction Therapy). Values in % inhibition of phosphorylation given 1 µM of RAFi compared to control. (B) KSS performed at Invitrogen (Selectscreen Service) compared to control. Values in % inhibition of phosphorylation given 1 µM of RAFi. (C) Cell based dose response kinase inhibition of indicated kinases by RAFi. (PDF) Click here for additional data file.

ERBB4 (HER4) = ERBB4 (HER4) (Homo sapiens, UniProt Q15303); design: Invitrogen SelectScreen kinase panel, percent inhibition at 1 uM, ATP at Km; details: read-out: Invitrogen KSS %Inh at 1 µM
Protocol: as §1

AURB = target: T2, AURB (Homo sapiens, UniProt Q96GD4); design: University of Dundee kinase panel, percent inhibition of phosphorylation at 1 uM RAFi, ATP at Km; details: read-out: Dundee KSS %inh at 1 uM
T2 construct: gene AURKB
T2 sequence (Q96GD4 whole entry): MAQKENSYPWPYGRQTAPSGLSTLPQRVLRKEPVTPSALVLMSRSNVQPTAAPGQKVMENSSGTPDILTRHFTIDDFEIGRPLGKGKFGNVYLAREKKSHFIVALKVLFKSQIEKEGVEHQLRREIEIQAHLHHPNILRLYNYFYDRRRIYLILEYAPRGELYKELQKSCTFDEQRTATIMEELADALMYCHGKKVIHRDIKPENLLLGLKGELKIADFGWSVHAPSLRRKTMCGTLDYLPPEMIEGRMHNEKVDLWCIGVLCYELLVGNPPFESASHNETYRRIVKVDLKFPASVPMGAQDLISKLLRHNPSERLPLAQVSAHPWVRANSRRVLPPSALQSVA
Protocol: as §1

DYRK2 = target: T3, DYRK2 (Homo sapiens, UniProt Q92630); design: University of Dundee kinase panel, percent inhibition of phosphorylation at 1 uM RAFi, ATP at Km; details: read-out: Dundee KSS %inh at 1 uM
T3 sequence (Q92630 1-601): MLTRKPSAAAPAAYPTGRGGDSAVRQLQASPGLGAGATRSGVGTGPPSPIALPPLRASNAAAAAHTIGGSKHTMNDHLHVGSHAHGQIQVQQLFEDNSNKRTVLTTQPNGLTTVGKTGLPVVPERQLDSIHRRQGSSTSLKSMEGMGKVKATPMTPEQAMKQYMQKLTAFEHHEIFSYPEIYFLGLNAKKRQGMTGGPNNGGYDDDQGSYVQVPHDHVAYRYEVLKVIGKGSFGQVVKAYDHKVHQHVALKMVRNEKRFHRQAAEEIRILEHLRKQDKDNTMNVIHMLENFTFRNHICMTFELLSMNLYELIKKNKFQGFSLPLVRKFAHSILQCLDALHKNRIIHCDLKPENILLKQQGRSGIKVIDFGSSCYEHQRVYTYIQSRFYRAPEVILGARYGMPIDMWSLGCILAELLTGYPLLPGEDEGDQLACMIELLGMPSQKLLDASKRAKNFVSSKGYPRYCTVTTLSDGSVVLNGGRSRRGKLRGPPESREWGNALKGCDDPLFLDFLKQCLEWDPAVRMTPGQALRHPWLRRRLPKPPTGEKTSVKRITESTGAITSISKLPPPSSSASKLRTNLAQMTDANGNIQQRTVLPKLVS
Protocol: as §1

MST2 = target: T4, MST2 (Homo sapiens, UniProt Q13188); design: University of Dundee kinase panel, percent inhibition of phosphorylation at 1 uM RAFi, ATP at Km; details: read-out: Dundee KSS %inh at 1 uM
T4 construct: gene STK3
T4 sequence (Q13188 whole entry): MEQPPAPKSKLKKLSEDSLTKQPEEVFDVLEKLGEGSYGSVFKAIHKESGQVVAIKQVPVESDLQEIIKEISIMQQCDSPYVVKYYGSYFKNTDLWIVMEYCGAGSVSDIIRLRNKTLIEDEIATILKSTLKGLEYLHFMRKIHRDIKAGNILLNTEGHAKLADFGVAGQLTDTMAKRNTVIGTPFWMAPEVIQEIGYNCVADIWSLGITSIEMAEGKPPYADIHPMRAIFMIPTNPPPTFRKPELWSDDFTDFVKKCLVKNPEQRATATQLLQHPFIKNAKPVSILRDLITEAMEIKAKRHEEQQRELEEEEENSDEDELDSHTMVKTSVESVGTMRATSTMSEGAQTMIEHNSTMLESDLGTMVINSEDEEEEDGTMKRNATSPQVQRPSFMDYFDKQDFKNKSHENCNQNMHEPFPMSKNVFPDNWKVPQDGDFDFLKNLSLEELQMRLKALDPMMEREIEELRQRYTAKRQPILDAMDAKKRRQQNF
Protocol: as §1

NEK6 = NEK6 (Homo sapiens, UniProt Q9HC98); design: University of Dundee kinase panel, percent inhibition of phosphorylation at 1 uM RAFi, ATP at Km; details: read-out: Dundee KSS %inh at 1 uM
Sequence of NEK6 (Q9HC98 whole entry): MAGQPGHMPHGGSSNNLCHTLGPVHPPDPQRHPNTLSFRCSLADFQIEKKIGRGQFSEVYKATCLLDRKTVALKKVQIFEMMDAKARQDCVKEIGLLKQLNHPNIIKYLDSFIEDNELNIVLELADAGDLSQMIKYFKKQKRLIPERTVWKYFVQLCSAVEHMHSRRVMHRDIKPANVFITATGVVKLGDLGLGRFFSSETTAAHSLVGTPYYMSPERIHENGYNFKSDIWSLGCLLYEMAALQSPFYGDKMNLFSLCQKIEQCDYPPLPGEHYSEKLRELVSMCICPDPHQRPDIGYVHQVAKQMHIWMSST
Protocol: as §1

PKCa = target: T5, PKCa (Homo sapiens, UniProt P17252); design: University of Dundee kinase panel, percent inhibition of phosphorylation at 1 uM RAFi, ATP at Km; details: read-out: Dundee KSS %inh at 1 uM
T5 construct: gene PRKCA
Protocol: as §1

PLK1 [2] = target: T1, PLK1; design: University of Dundee kinase panel, percent inhibition of phosphorylation at 1 uM RAFi, ATP at Km; details: read-out: Dundee KSS %inh at 1 uM
Protocol: as §1

PLK1preactivated = target: T6, PLK1preactivated (Homo sapiens, UniProt P53350); design: University of Dundee kinase panel, percent inhibition of phosphorylation at 1 uM RAFi, ATP at Km; details: read-out: Dundee KSS %inh at 1 uM
T6 construct: gene PLK1
T6 sequence (P53350 whole entry): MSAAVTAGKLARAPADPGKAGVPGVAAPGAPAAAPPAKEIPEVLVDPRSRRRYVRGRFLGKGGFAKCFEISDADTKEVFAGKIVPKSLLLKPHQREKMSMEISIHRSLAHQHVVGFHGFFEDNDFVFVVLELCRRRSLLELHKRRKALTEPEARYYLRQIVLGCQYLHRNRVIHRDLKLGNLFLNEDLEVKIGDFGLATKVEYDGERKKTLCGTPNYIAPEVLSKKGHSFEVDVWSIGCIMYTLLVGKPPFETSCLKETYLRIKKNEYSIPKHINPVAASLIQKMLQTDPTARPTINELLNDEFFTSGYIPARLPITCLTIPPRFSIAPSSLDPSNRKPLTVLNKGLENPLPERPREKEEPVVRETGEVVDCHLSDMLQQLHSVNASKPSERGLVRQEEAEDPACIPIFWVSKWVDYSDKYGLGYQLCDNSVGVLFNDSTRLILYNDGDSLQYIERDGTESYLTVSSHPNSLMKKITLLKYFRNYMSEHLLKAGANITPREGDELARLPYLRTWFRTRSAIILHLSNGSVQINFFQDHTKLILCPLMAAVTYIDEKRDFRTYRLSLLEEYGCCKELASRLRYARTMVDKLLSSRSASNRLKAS
Protocol: as §1

mouse LCK = mouse LCK (Mus musculus, UniProt P06240); design: University of Dundee kinase panel, percent inhibition of phosphorylation at 1 uM RAFi, ATP at Km; details: read-out: Dundee KSS %inh at 1 uM
Sequence of mouse LCK (P06240 whole entry): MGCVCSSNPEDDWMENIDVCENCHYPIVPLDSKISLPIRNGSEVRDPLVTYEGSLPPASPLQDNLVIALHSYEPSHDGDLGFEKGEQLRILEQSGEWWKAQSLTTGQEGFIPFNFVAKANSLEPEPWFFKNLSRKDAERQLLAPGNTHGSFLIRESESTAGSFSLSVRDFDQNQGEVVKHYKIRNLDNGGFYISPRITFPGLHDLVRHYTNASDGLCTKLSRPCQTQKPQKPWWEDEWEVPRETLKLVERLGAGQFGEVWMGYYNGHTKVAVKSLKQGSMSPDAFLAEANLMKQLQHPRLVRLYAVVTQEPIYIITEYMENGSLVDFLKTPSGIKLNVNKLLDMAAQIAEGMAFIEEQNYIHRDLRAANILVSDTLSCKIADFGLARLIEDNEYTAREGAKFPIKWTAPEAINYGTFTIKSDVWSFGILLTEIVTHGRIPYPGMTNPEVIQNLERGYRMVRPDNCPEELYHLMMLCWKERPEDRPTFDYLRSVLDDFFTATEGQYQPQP
Protocol: as §1

rat AMPKa2 = target: T7, rat AMPKa2 (Rattus norvegicus, UniProt Q09137); design: University of Dundee kinase panel, percent inhibition of phosphorylation at 1 uM RAFi, ATP at Km; details: read-out: Dundee KSS %inh at 1 uM
T7 construct: gene Prkaa2
T7 sequence (Q09137 whole entry): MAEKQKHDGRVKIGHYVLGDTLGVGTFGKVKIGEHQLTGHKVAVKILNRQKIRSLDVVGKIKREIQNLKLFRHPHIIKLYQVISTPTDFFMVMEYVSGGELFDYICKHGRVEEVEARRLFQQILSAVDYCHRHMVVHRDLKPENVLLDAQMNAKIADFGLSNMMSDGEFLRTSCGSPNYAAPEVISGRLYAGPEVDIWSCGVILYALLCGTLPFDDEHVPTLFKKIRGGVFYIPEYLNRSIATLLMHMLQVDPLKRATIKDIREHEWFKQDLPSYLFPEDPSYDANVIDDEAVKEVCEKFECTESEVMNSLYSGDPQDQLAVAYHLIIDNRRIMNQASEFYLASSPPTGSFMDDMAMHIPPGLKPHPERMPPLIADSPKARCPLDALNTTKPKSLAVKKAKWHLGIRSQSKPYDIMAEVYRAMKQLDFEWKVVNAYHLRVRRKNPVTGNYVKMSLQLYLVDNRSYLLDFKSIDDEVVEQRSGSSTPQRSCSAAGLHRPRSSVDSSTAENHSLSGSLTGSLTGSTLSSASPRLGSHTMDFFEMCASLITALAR
Protocol: as §1

T1 sequence (P53350 whole entry): as the sequence (P53350 whole entry) above

SMILES | Dundee KSS % inhibition at 1uM (PLK1 [1]; inhibitor, Dundee KSS % inhibition at 1uM, 1 µM) | inhibition at 1 µM (PLK1 [1]; read-out: Dundee KSS % inhibition at 1uM) | inhibition at 1 µM (CSF1R (FMS)) | inhibition at 1 µM (ERBB4 (HER4)) | inhibition at 1 µM (AURB) | inhibition at 1 µM (DYRK2) | inhibition at 1 µM (MST2) | inhibition at 1 µM (NEK6) | inhibition at 1 µM (PKCa) | inhibition at 1 µM (PLK1 [2]) | inhibition at 1 µM (PLK1preactivated) | inhibition at 1 µM (mouse LCK) | inhibition at 1 µM (rat AMPKa2)
OCCn1cc(-c2cnc3nnn(Cc4ccc5ncccc5c4)c3n2)cn1 [METi, PF-04217903] | 10.1% | 13.6% | – | – | – | – | – | – | – | – | – | – | –
N#CCCNc1nccc(-c2cn(CC(F)F)nc2-c2cnc3[nH]ccc3c2)n1 [RAFi, PF-04880594] | – | – | 33% | 24% | 16% | 23% | 63% | 13% | 53% | 47% | 64% | 22% | 15%
